In brackets after ≈: the same amount, converted by molar mass. Structures can show the parent of a compound that is named as a salt. Where two headings read alike, the source gives them in different places.
How the values were obtained:
[1] = prior-art filing; cited from earlier work
[2] = test system: Penicillin-sensitive S. aureus (Gp-Ia); experiment: In vitro antibacterial activity, two-fold agar dilution, Mueller-Hinton agar (Table 1), group Gp-Ia; format: cell-based; conditions: Staphylococcus aureus; read-out: Geometric Mean of MIC
[3] = test system: Penicillin-resistant S. aureus (Gp-Ib); experiment: In vitro antibacterial activity, two-fold agar dilution, Mueller-Hinton agar (Table 1), group Gp-Ib; format: cell-based; conditions: Staphylococcus aureus; read-out: Geometric Mean of MIC
[4] = test system: Cephalothin-sensitive E. coli, Kl. pneumoniae and Pr. mirabilis (Gn-Ia); experiment: In vitro antibacterial activity, two-fold agar dilution, Mueller-Hinton agar (Table 1), group Gn-Ia; format: cell-based; conditions: read-out: Geometric Mean of MIC
[5] = test system: Cephalothin-resistant E. coli and Kl. pneumoniae (Gn-Ib); experiment: In vitro antibacterial activity, two-fold agar dilution, Mueller-Hinton agar (Table 1), group Gn-Ib; format: cell-based, E. coli (3) and Kl. pneumoniae (3); conditions: Escherichia coli, read-out: Geometric Mean of MIC
[6] = test system: Pr. morganii, Ent. cloacae and Ser. marcescens (Gn-II); experiment: In vitro antibacterial activity, two-fold agar dilution, Mueller-Hinton agar (Table 1), group Gn-II; format: cell-based, Pr. morganii (1), Ent. cloacae (2) and Ser. marcescens (2); conditions: read-out: Geometric Mean of MIC
Ps. aeruginosa (Gn-III) = experiment: In vitro antibacterial activity, two-fold agar dilution, Mueller-Hinton agar (Table 1), group Gn-III; format: cell-based; conditions: Pseudomonas aeruginosa; read-out: Geometric Mean of MIC
S. aureus Smith [7] = experiment: MIC against selected test organisms (Table 2); format: cell-based; conditions: Staphylococcus aureus; Gp-Ia, PC-S; read-out: Minimum Inhibitory Concentration
S. aureus A9497 = experiment: MIC against selected test organisms (Table 2); format: cell-based; conditions: Staphylococcus aureus, Gp-Ia, PC-S, read-out: Minimum Inhibitory Concentration
S. aureus BX-1633 = experiment: MIC against selected test organisms (Table 2); format: cell-based; conditions: Staphylococcus aureus, BX1633; Gp-Ib, PC-R; read-out: Minimum Inhibitory Concentration
S. aureus A15092 = experiment: MIC against selected test organisms (Table 2); format: cell-based; conditions: Staphylococcus aureus, Gp-Ib, PC-R, read-out: Minimum Inhibitory Concentration
E. coli Juhl [8] = experiment: MIC against selected test organisms (Table 2); format: cell-based; conditions: Escherichia coli; Gn-Ia, CET-S; read-out: Minimum Inhibitory Concentration
K. pneumoniae D11 = experiment: MIC against selected test organisms (Table 2); format: cell-based; conditions: Klebsiella pneumoniae, D11; Gn-Ia, CET-S; read-out: Minimum Inhibitory Concentration
P. mirabilis A9554 = experiment: MIC against selected test organisms (Table 2); format: cell-based; conditions: Proteus mirabilis, A9554; Gn-Ia, CET-S; read-out: Minimum Inhibitory Concentration
E. coli A15148 = experiment: MIC against selected test organisms (Table 2); format: cell-based; conditions: Escherichia coli, A15148; Gn-Ib, CET-R; read-out: Minimum Inhibitory Concentration
K. pneumoniae A 9867 = experiment: MIC against selected test organisms (Table 2); format: cell-based; conditions: Klebsiella pneumoniae, A9867; Gn-Ib, CET-R; read-out: Minimum Inhibitory Concentration
P. morganii A9553 = experiment: MIC against selected test organisms (Table 2); format: cell-based; conditions: Morganella morganii, A9553; Gn-II, CET-R; read-out: Minimum Inhibitory Concentration
E. cloacae A9656 = experiment: MIC against selected test organisms (Table 2); format: cell-based; conditions: Enterobacter cloacae, Gn-II, CET-R, read-out: Minimum Inhibitory Concentration
S. marcescens A20019 = experiment: MIC against selected test organisms (Table 2); format: cell-based; conditions: Serratia marcescens, A20019; Gn-II, CET-R; read-out: Minimum Inhibitory Concentration
P. aeruginosa A15150 = experiment: MIC against selected test organisms (Table 2); format: cell-based; conditions: Pseudomonas aeruginosa, A15150; Gn-III, CET-R; read-out: Minimum Inhibitory Concentration
P. aeruginosa A9843 [9] = experiment: MIC against selected test organisms (Table 2); format: cell-based; conditions: Pseudomonas aeruginosa, A9843; Gn-III, CET-R; read-out: Minimum Inhibitory Concentration
P. aeruginosa A20717 = experiment: MIC against selected test organisms (Table 2); format: cell-based; conditions: Pseudomonas aeruginosa, A20717; Gn-III, CET-R; read-out: Minimum Inhibitory Concentration
B. fragilis A20928-1 = experiment: MIC against selected test organisms (Table 2); format: cell-based; conditions: Bacteroides fragilis, A209281; Anaerobe, CET-S; read-out: Minimum Inhibitory Concentration
B. fragilis A21900 = experiment: MIC against selected test organisms (Table 2); format: cell-based; conditions: Bacteroides fragilis, A21900; Anaerobe, CET-S; read-out: Minimum Inhibitory Concentration
B. fragilis A22021 = experiment: MIC against selected test organisms (Table 2); format: cell-based; conditions: Bacteroides fragilis, A22021; Anaerobe, CET-R; read-out: Minimum Inhibitory Concentration
B. fragilis A22693 = experiment: MIC against selected test organisms (Table 2); format: cell-based; conditions: Bacteroides fragilis, A22693; Anaerobe, CET-R; read-out: Minimum Inhibitory Concentration
B. fragilis A22695 = experiment: MIC against selected test organisms (Table 2); format: cell-based; conditions: Bacteroides fragilis, A22695; Anaerobe, AMP-R; read-out: Minimum Inhibitory Concentration
B. fragilis A22533 = experiment: MIC against selected test organisms (Table 2); format: cell-based; conditions: Bacteroides fragilis, A22533; Anaerobe, AMP-R; read-out: Minimum Inhibitory Concentration
C. difficile A21675 = experiment: MIC against selected test organisms (Table 2); format: cell-based; conditions: Clostridioides difficile, A21675; Anaerobe, CLDM-R; read-out: Minimum Inhibitory Concentration
C. perfringens A9635 = experiment: microbe, parasite or virus in culture; format: cell-based; conditions: Clostridium perfringens, A9635, read-out: Minimum Inhibitory Concentration
P. acnes A21933 = experiment: MIC against selected test organisms (Table 2); format: cell-based; conditions: Cutibacterium acnes, A21933; Anaerobe, CLDM-R; read-out: Minimum Inhibitory Concentration
E. coli Juhl [10] = experiment: Therapeutic efficacy in experimentally infected mice (Table 5); format: in vivo; conditions: Escherichia coli, im, 120 h; i.m., immediately after intraperitoneal challenge, 5 days observation; read-out: PD50 (median protective dose)
Description: (§1) The test compounds were administered intramuscularly immediately after the bacterial challenge.

P. aeruginosa A9843 [11] = experiment: as above; format: in vivo; conditions: Pseudomonas aeruginosa, A9843, im, 120 h; i.m., immediately after intraperitoneal challenge, 5 days observation; read-out: PD50 (median protective dose)
Description: as §1

S. aureus Smith [12] = experiment: as above; format: in vivo; conditions: Staphylococcus aureus, im, 120 h; i.m., immediately after intraperitoneal challenge, 5 days observation; read-out: PD50 (median protective dose)
Description: as §1

B. fragilis Group I = experiment: In vitro antianaerobic activity in GAM agar (Table 4); format: cell-based; conditions: Bacteroides fragilis
B. fragilis Group II = experiment: as above; format: cell-based; conditions: Bacteroides fragilis; read-out: Geometric Mean of MIC
B. fragilis Group III = experiment: as above; format: cell-based; conditions: read-out: Geometric Mean of MIC
[13] = test system: Others Group IV (C. difficile, C. perfringens, P. acne and P. anaerobius); experiment: microbe, parasite or virus in culture; format: cell-based; conditions: read-out: Geometric Mean of MIC, GAM agar, 1 strain each

In the case of `CC(C)(O/N=C(\C(=O)N[C@@H]1C(=O)N2C(C(=O)[O-])=C(C[n+]3ccccc3)CS[C@H]12)c1csc(N)n1)C(=O)O` [bishydrochloride of ceftazidime], the storage stability [1] is given as “good storage stability”.

In the case of `CSc1ccc[n+](CC2=C(C(=O)[O-])N3C(=O)C(NC(=O)/C(=N\OC(C)(C)C(=O)O)c4csc(N)n4)C3SC2)c1` (stereo not drawn) [Example 1, 7-[(Z)-2-(2-Aminothiazol-4-yl)-2-(2-carboxyprop-2-oxyimino)acetamido]-3-[(3-methylthiopyridinium)methyl]-3-cephem-4-carboxylate], the MIC [2] is reported as 4.7 µg/mL (≈ 7.93 µM), the MIC [3] is reported as 12.5 µg/mL (≈ 21.1 µM) and the MIC [4] is reported as 0.11 µg/mL (≈ 0.186 µM). For the same compound, the MIC [5] was 1.1 µg/mL (≈ 1.86 µM), the MIC [6] was 2.8 µg/mL (≈ 4.72 µM) and the MIC (Ps. aeruginosa (Gn-III)) was 3.5 µg/mL (≈ 5.91 µM). The MIC (S. aureus Smith [7]) was 6.3 µg/mL (≈ 10.6 µM), the MIC (S. aureus A9497) was 3.1 µg/mL (≈ 5.23 µM) and the MIC (S. aureus BX-1633) was 12.5 µg/mL (≈ 21.1 µM). For the same compound, the MIC (S. aureus A15092) was 12.5 µg/mL (≈ 21.1 µM), the MIC (E. coli Juhl [8]) was 0.2 µg/mL (≈ 0.337 µM) and the MIC (K. pneumoniae D11) was 0.4 µg/mL (≈ 0.675 µM). It also gave an MIC (P. mirabilis A9554) of 0.1 µg/mL (≈ 0.169 µM), an MIC (E. coli A15148) of 0.4 µg/mL (≈ 0.675 µM) and an MIC (K. pneumoniae A 9867) of 3.1 µg/mL (≈ 5.23 µM). For the same compound, the MIC (P. morganii A9553) was 1.6 µg/mL (≈ 2.7 µM), the MIC (E. cloacae A9656) was 0.4 µg/mL (≈ 0.675 µM) and the MIC (S. marcescens A20019) was 0.2 µg/mL (≈ 0.337 µM). For the same compound, the MIC (P. aeruginosa A15150) was 1.6 µg/mL (≈ 2.7 µM), the MIC (P. aeruginosa A9843 [9]) was 3.1 µg/mL (≈ 5.23 µM) and the MIC (P. aeruginosa A20717) was 12.5 µg/mL (≈ 21.1 µM). The MIC (B. fragilis A20928-1) was 6.3 µg/mL (≈ 10.6 µM), the MIC (B. fragilis A21900) was 6.3 µg/mL (≈ 10.6 µM) and the MIC (B. fragilis A22021) was 25 µg/mL (≈ 42.2 µM). It also gave an MIC (B. fragilis A22693) of 25 µg/mL (≈ 42.2 µM), an MIC (B. fragilis A22695) of 50 µg/mL (≈ 84.4 µM) and an MIC (B. fragilis A22533) of over 100 µg/mL. It also gave an MIC (C. difficile A21675) of over 100 µg/mL, an MIC (C. perfringens A9635) of 25 µg/mL (≈ 42.2 µM) and an MIC (P. acnes A21933) of 1.6 µg/mL (≈ 2.7 µM). The ED50 (E. coli Juhl [10]) was 0.46 mg/kg, the ED50 (P. aeruginosa A9843 [11]) was 12 mg/kg and the ED50 (S. aureus Smith [12]) was 6 mg/kg.

In the case of `CSc1cccc[n+]1CC1=C(C(=O)[O-])N2C(=O)C(NC(=O)/C(=N\OC(C)(C)C(=O)O)c3csc(N)n3)C2SC1` (stereo not drawn) [Example 3, 7-[(Z)-2-(2-Aminothiazol-4-yl)-2-(2-carboxyprop-2-oxyimino)-acetamido]-3-[(2-methylthiopyridinium)methyl]-3-cephem-4-carboxylate], the MIC [2] is reported as 9.5 µg/mL (≈ 16 µM), the MIC [3] is reported as 12.5 µg/mL (≈ 21.1 µM) and the MIC [4] is reported as 0.11 µg/mL (≈ 0.186 µM). It also gave an MIC [5] of 2 µg/mL (≈ 3.37 µM), an MIC [6] of 3.2 µg/mL (≈ 5.4 µM) and an MIC (Ps. aeruginosa (Gn-III)) of 5.6 µg/mL (≈ 9.45 µM).

`CC(C)Sc1cc[n+](CC2=C(C(=O)[O-])N3C(=O)C(NC(=O)/C(=N\OC(C)(C)C(=O)O)c4csc(N)n4)C3SC2)cc1` (stereo not drawn) [Example 5, 7-[(Z)-2-(2-Aminothiazol-4-yl)-2-(2-carboxyprop-2-oxyimino)-acetamido]-3-[(4-isopropylthiopyridinium)methyl]-3-cephem-4-carboxylate] gave an MIC [2] of 4.7 µg/mL (≈ 7.57 µM), an MIC [3] of 12.5 µg/mL (≈ 20.1 µM) and an MIC [4] of 0.11 µg/mL (≈ 0.177 µM). It also gave an MIC [5] of 1 µg/mL (≈ 1.61 µM), an MIC [6] of 2.4 µg/mL (≈ 3.87 µM) and an MIC (Ps. aeruginosa (Gn-III)) of 12.5 µg/mL (≈ 20.1 µM). For the same compound, the MIC (B. fragilis Group I; read-out: Geometric Mean of MIC) was 3.2 µg/mL (≈ 5.16 µM), the MIC (B. fragilis Group II) was 25 µg/mL (≈ 40.3 µM) and the MIC (B. fragilis Group III) was over 100 µg/mL. The MIC ([13]; Example 5 ceftazidime (mean of 2 experiments)) was 3.5 µg/mL (≈ 5.64 µM).

Compound `CCSc1cc[n+](CC2=C(C(=O)[O-])N3C(=O)C(NC(=O)/C(=N\OC(C)(C)C(=O)O)c4csc(N)n4)C3SC2)cc1` (stereo not drawn) [Example 4, 7-[(Z)-2-(2-Aminothiazol-4-yl)-2-(2-carboxyprop-2-oxyimino)acetamido]-3-[(4-ethylthiopyridinium)methyl]-3-cephem-4-carboxylate] has an MIC [2] of 6.3 µg/mL (≈ 10.4 µM), an MIC [3] of 12.5 µg/mL (≈ 20.6 µM) and an MIC [4] of 0.087 µg/mL (≈ 0.143 µM). The MIC [5] was 1.3 µg/mL (≈ 2.14 µM), the MIC [6] was 2.1 µg/mL (≈ 3.46 µM) and the MIC (Ps. aeruginosa (Gn-III)) was 8.8 µg/mL (≈ 14.5 µM). For the same compound, the MIC (B. fragilis Group I; read-out: Geometric Mean of MIC, GAM agar, Example 4, ceftazidime (mean of 3 experiments), nonlactamase-producing, ampicillin-sensitive, 3 strains) was 2.5 µg/mL (≈ 4.12 µM), the MIC (B. fragilis Group II) was 12.5 µg/mL (≈ 20.6 µM) and the MIC (B. fragilis Group III) was 100 µg/mL (≈ 165 µM). The MIC ([13]; Example 4, ceftazidime (mean of 3 experiments)) was 8.9 µg/mL (≈ 14.7 µM).

— US4394503A, “Cephalosporin derivatives” (priority 1981, dated 1983)
